# According to patent US20180272034A1, “USE OF CSA COMPOUNDS TO PREVENT MICROBIAL BUILD-UP OR FOULING OF MEDICAL IMPLANTS” (BRIGHAM YOUNG UNIVERSITY, priority 2017, published 2018):
# What was measured:
# Klebsiella pneumonia = experiment: Log10 reduction, coated PVC endotracheal tube segments and media; format: cell-based; conditions: CSA-131 polymer coating about 39.4 μg/cm^2 vs uncoated, 24 hours
# Experimental: (§1) Segments of polyvinyl chloride (PVC) endotracheal tubes measuring 3 cm in length were placed in wells of a 6 well plate. 7 ml of inoculum were placed in each well. Testing was repeated in triplicate for each test article. The samples were placed on a rotary shaker (110 revolutions per minute) and incubated at 37±2° C. for 24 hours. At the end of 24 hours the bacteria in the inoculum were characterized via serial dilution, plating, and counting. The endotracheal tube segment was also removed and neutralized. After neutralization, the adherent biofilm biomass was removed and characterized via serial dilution, plating, and counting.
# (§2) As the number of viable organisms recovered from the treated catheters is expected to be low, a membrane filtration method provides an appropriate analysis for counting recovered organisms. The remaining recovery solution was filtered through a 0.45 μm filter membrane. Filters were placed on TSA/SDA/NA/TSBA plates and incubated at 37±2° C. and counted after sufficient incubation.
# (§3) The log reduction is calculated by determining the Log10 difference between uncoated devices and associated media and coated devices (using a polymer coating including CSA-131 at about 39.4 μg/cm^2) and associated media. The log reduction is calculated as follows:
# (§4) Log reduction(Media)=Control Log10(CFU/ml)−Test Log10(CFU/ml)
# (§5) Log10(CFU/ml)=Log10(CFU/ml+1)
# (§6) Log reduction(Device)=Control Log10(CFU/device)−Test Log10(CFU/device)
# (§7) Log10(CFU/device)=Log10(CFU/device+1)
# Pseudomonas aeruginosa = experiment: as above; format: cell-based; conditions: CSA-131 polymer coating about 39.4 μg/cm^2 vs uncoated, 24 hours
# Experimental: as §1, §2, §3, §4, §5, §6, §7
# [1] = tested on: Staphylococcus aureus MRSA; experiment: as above; format: cell-based; conditions: CSA-131 polymer coating about 39.4 μg/cm^2 vs uncoated, 24 hours
# Experimental: as §1, §2, §3, §4, §5, §6, §7
# [2] = tested on: All (74) clinical isolates; experiment: Broth microdilution MIC, HABP/VABP clinical isolates; format: cell-based
# Experimental: (§8) CSA-131 was tested in vitro against a set of clinical isolates representing bacterial species commonly associated with hospital-acquired bacterial pneumonia (HABP) or ventilator-associated bacterial pneumonia (VABP). Antimicrobial susceptibility testing for 74 clinical isolates was performed. Broth microdilution using frozen-form MIC panels consisted of three media types: cation-adjusted Mueller-Hinton broth (CA-HMB), CA-HMB supplemented with 2.5-5% lysed horse blood for S. pneumoniae and Haemophilus test media (HTM) for Haemophilus spp.
# Enterobacteriaceae = experiment: as above; format: cell-based; conditions: Enterobacteriaceae (22)
# Experimental: as §8
# Haemophilus spp. = experiment: as above; format: cell-based
# Experimental: as §8
# Staphylococcus aureus = experiment: as above; format: cell-based; conditions: Staphylococcus aureus (10)
# Experimental: as §8
# Streptococcus Pneumoniae = experiment: as above; format: cell-based; conditions: Streptococcus Pneumoniae (10)
# Experimental: as §8
# Non-fermenters = experiment: as above; format: cell-based, A. baumannii species complex, P. aeruginosa, S. maltophilia; conditions: Non-fermenters (22)
# Experimental: as §8
# [3] = Duration of efficacy of silicone-based Foley catheter with CSA-131; conditions: hydrogel coating approximately 10 μm including CSA-131
# Text: A silicone-based Foley catheter was coated with a hydrogel coating of approximately 10 μm in thickness. The coating included CSA-131. The coating was initially shown to maintain efficacy for about 6-7 days. A silicone-based Foley catheter was formed using silicone mixed with an NDSA salt form of CSA-131.
structure (smiles),measurement,setting,value
CCCCCCCCCCCCNCCC[C@@H](C)[C@H]1CC[C@H]2[C@@H]3[C@H](OCCCN)C[C@@H]4C[C@H](OCCCN)CC[C@]4(C)[C@H]3C[C@H](OCCCN)[C@]12C.Cl.Cl.Cl.Cl [CSA-131],Log10 Reduction Device,Klebsiella pneumonia; 06-0140-M4505,5.21
same,Log10 Reduction Media,Klebsiella pneumonia; 06-0140-M4505,9.49
same,Log10 Reduction Total,Klebsiella pneumonia; 06-0140-M4505,7.85
same,Log10 Reduction Device,Klebsiella pneumonia; 4352 (clinical),4.91
same,Log10 Reduction Media,Klebsiella pneumonia; 4352 (clinical),6.56
same,Log10 Reduction Total,Klebsiella pneumonia; 4352 (clinical),7.70
same,Log10 Reduction Device,Klebsiella pneumonia; ATCC 29011,3.80
same,Log10 Reduction Media,Klebsiella pneumonia; ATCC 29011,6.76
same,Log10 Reduction Total,Klebsiella pneumonia; ATCC 29011,6.82
same,Log10 Reduction Device,Pseudomonas aeruginosa; ATCC 10752 (clinical),7.32
same,Log10 Reduction Media,Pseudomonas aeruginosa; ATCC 10752 (clinical),9.86
same,Log10 Reduction Total,Pseudomonas aeruginosa; ATCC 10752 (clinical),9.58
same,Log10 Reduction Device,Pseudomonas aeruginosa; ATCC 27853,7.58
same,Log10 Reduction Media,Pseudomonas aeruginosa; ATCC 27853,9.15
same,Log10 Reduction Total,Pseudomonas aeruginosa; ATCC 27853,8.62
same,Log10 Reduction Device,Pseudomonas aeruginosa; PA14 (clinical),5.81
same,Log10 Reduction Media,Pseudomonas aeruginosa; PA14 (clinical),7.24
same,Log10 Reduction Total,Pseudomonas aeruginosa; PA14 (clinical),7.00
same,Log10 Reduction Device,[1]; 399 (clinical),6.24
same,Log10 Reduction Media,[1]; 399 (clinical),8.89
same,Log10 Reduction Total,[1]; 399 (clinical),8.23
same,Log10 Reduction Device,[1]; 456 (clinical),6.77
same,Log10 Reduction Media,[1]; 456 (clinical),9.63
same,Log10 Reduction Total,[1]; 456 (clinical),9.63
same,Log10 Reduction Device,[1]; U of C #18 (clinical),5.92
same,Log10 Reduction Media,[1]; U of C #18 (clinical),9.36
same,Log10 Reduction Total,[1]; U of C #18 (clinical),8.44
same,MIC50,[2],4 mg/L
same,MIC90,[2],8 mg/L
same,No. of isolates at MIC 2 μg/ml,[2],23
same,No. of isolates at MIC 4 μg/ml,[2],40
same,No. of isolates at MIC 8 μg/ml,[2],11
same,cumulative % inhibited at 2 μg/ml,[2],31.1%
same,cumulative % inhibited at 4 μg/ml,[2],85.1%
same,cumulative % inhibited at 8 μg/ml,[2],100%
same,MIC50,Enterobacteriaceae,4 mg/L
same,MIC90,Enterobacteriaceae,4 mg/L
same,No. of isolates at MIC 2 μg/ml,Enterobacteriaceae,4
same,No. of isolates at MIC 4 μg/ml,Enterobacteriaceae,18
same,No. of isolates at MIC 8 μg/ml,Enterobacteriaceae,0
same,cumulative % inhibited at 2 μg/ml,Enterobacteriaceae,18.2%
same,cumulative % inhibited at 4 μg/ml,Enterobacteriaceae,100%
same,cumulative % inhibited at 8 μg/ml,Enterobacteriaceae,100%
same,MIC50,Haemophilus spp.; Haemophilus spp. (10),8 mg/L
same,MIC90,Haemophilus spp.; Haemophilus spp. (10),8 mg/L
same,No. of isolates at MIC 4 μg/ml,Haemophilus spp.; Haemophilus spp. (10),0 (0%)
same,No. of isolates at MIC 8 μg/ml,Haemophilus spp.; Haemophilus spp. (10),10
same,cumulative % inhibited at 2 μg/ml,Haemophilus spp.; Haemophilus spp. (10),0 (0%)
same,cumulative % inhibited at 4 μg/ml,Haemophilus spp.; Haemophilus spp. (10),0 (0%)
same,cumulative % inhibited at 8 μg/ml,Haemophilus spp.; Haemophilus spp. (10),100%
same,No. of isolates at MIC 2 μg/ml,"Haemophilus spp.; Haemophilus spp. (10): 8 H. influenza, 2 H. parainfluenzae",0 (0%)
same,MIC50,Staphylococcus aureus,2 mg/L
same,MIC90,Staphylococcus aureus,2 mg/L
same,No. of isolates at MIC 2 μg/ml,Staphylococcus aureus,10
same,No. of isolates at MIC 4 μg/ml,Staphylococcus aureus,0
same,No. of isolates at MIC 8 μg/ml,Staphylococcus aureus,0
same,cumulative % inhibited at 2 μg/ml,Staphylococcus aureus,100%
same,cumulative % inhibited at 4 μg/ml,Staphylococcus aureus,100%
same,cumulative % inhibited at 8 μg/ml,Staphylococcus aureus,100%
same,MIC50,Streptococcus Pneumoniae,4 mg/L
same,MIC90,Streptococcus Pneumoniae,4 mg/L
same,No. of isolates at MIC 2 μg/ml,Streptococcus Pneumoniae,0 (0%)
same,No. of isolates at MIC 4 μg/ml,Streptococcus Pneumoniae,10
same,No. of isolates at MIC 8 μg/ml,Streptococcus Pneumoniae,0
same,cumulative % inhibited at 2 μg/ml,Streptococcus Pneumoniae,0 (0%)
same,cumulative % inhibited at 4 μg/ml,Streptococcus Pneumoniae,100%
same,cumulative % inhibited at 8 μg/ml,Streptococcus Pneumoniae,100%
same,MIC50,Non-fermenters,4 mg/L
same,MIC90,Non-fermenters,4 mg/L
same,No. of isolates at MIC 2 μg/ml,Non-fermenters,9
same,No. of isolates at MIC 4 μg/ml,Non-fermenters,12
same,No. of isolates at MIC 8 μg/ml,Non-fermenters,1
same,cumulative % inhibited at 2 μg/ml,Non-fermenters,40.9%
same,cumulative % inhibited at 4 μg/ml,Non-fermenters,95.5%
same,cumulative % inhibited at 8 μg/ml,Non-fermenters,100%
same,time coating maintains efficacy,[3],6 to 7 days
